The text below walks through data of patent publication US20240424053A1, “METHODS AND COMPOSITIONS FOR PROVIDING MYOCARDIAL PROTECTION AND TREATING MYOCARDIAL STRESS AND FIBROSIS” (Tufts Medical Center, Inc., priority 2021, published 2024).

Where a SMILES comes first, the peptide text is derived from it. The star is where a group is joined. Palmitoyl = CCCCCCCCCCCCCCCC(=O)*

The target of test [1] is T1, PAR1 (Mus musculus, UniProt P30558).
T1 construct: endogenous in cells; host or cells: male C57BL/6N mice, in vivo
T1 sequence (P30558 22-430): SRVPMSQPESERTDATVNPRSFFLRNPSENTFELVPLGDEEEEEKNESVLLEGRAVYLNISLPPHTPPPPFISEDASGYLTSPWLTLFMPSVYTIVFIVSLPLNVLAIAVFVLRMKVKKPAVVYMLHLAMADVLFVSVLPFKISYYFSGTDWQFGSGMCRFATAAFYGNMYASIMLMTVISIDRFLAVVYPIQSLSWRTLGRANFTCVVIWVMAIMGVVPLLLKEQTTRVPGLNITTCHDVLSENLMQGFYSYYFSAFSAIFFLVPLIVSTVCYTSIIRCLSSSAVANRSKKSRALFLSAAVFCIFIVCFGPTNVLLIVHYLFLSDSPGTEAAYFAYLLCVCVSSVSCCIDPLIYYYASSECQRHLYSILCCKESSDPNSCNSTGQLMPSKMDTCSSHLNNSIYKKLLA
Briefly: myocardial ischemia (30 min left coronary artery occlusion) / 2 h reperfusion in mice. It counts as in vivo. Particulars: 10 mg/kg sc before ischemia. As to the method:
FIGS. 1A-E show protection against cardiac myocardial injury by PZ-128 in mice. […] Images were quantified using ImageJ and adjusted by weight of each cardiac slice. Data are shown as mean±SD and analyzed by two-tailed Student's t-test: **p<0.01, ***p<0.001.
A role of PAR1 in directly mediating cardiac ischemic myonecrosis—independent of established platelet-dependent effects (Strande et al., Basic Res. Cardiol. 102(4):350-358, 2007)—was also examined. […] Mice (n=7) were treated with vehicle or 10 mg/kg PZ-128 (subcutaneous; sc) just prior to ischemic injury. As shown in FIG. 1a-d, PZ-128-treated mice had 51-62% reductions in mean cardiac Infarct Area (p<0.01), Area At Risk (p<0.01), and Total Ischemic Area (p<0.0001) compared to vehicle-treated mice. […] Using echocardiography after 3 days of reperfusion, there was a significant increase in left ventricular mass (p<0.05) in vehicle compared to PZ-128 treated cohorts, with no difference in left ventricular mass between baseline and 3 days in the PZ-128 cohort (FIG. 2). […] Previous pharmacokinetic studies of subcutaneously administered PZ-128 in mice were the basis of this 10 mg/kg dose in mice (Cisowski et al., Am. J. Pathol. 179(1):513-523, 2011), selected to match the 0.3-0.5 mg/kg doses administered in humans.
Eight-week male C57BL/6N mice were vehicle (20% DMSO) or 10 mg/kg PZ-128 1 h before cardiac surgery (n=7 per group). The left coronary artery was occluded for 30 min with a ligature left in place during reperfusion. Blood flow was restored for 2 h, then the left coronary artery was reoccluded, and 5% Evans blue dye was injected via the aorta. Hearts were frozen and sectioned in OTC, before incubation in TTC for 10 min at 37° C. (a) Sections were digitally scanned and the area of white (b—Infarct area=1), red (c—Area at Risk=AAR), white+red (d—total Ischemic area), and blue (e—Reperfusion area=R) quantified using ImageJ and adjusted by weight of each cardiac slice. Data are shown as mean±SD and analyzed by two-tailed Student's t-test: **p<0.01, ***p<0.001.

For test [2], the target named is T2, PAR1 (Homo sapiens, UniProt P25116).
T2 construct: delivered intravenously in 100 patients with coronary artery disease (CAD) and acute coronary syndrome (ACS) undergoing cardiac catheterization; endogenous in cells; host or cells: patients of the TRIP-PCI trial (platelets ex vivo; whole body in vivo)
T2 sequence (P25116 22-425): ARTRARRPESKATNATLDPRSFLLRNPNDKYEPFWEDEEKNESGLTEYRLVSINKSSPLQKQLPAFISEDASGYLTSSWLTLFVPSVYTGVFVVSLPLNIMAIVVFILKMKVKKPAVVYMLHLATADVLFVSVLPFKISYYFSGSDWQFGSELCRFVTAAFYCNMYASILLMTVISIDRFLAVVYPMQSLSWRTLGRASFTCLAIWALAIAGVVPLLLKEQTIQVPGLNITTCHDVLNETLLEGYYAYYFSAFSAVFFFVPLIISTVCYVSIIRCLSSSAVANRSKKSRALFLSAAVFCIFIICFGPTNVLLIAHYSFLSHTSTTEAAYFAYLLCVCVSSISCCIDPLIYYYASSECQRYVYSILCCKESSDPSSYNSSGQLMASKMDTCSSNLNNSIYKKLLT
Briefly: NT-proBNP plasma levels in heart failure subset of TRIP-PCI. Format: in vivo. Particulars: 24 hours after single dose (0.3 or 0.5 mg/kg combined), HF patients n=5, P=0.02. As to the method: Data was analyzed by 2-sided paired T-tests. Normal levels of NT-proBNP ≤125 pg/mL.
The TRIP-PCI (Thrombin Receptor Inhibitory Pepducin in PCI) Phase 2 trial (Kuliopulos et al., Arterioscler. Thromb. Vasc. Biol. 40(12):2990-3003, 2020), which enrolled a subset of patients with HF, was conducted to assess the safety, target engagement, and efficacy of PZ-128 in patients undergoing cardiac catheterization with intent to perform percutaneous coronary intervention (PCI). As explained above, in this randomized, double-blind, placebo-controlled, phase 2 trial, 100 patients were randomly assigned (2:1) to receive PZ-128 (0.3 mg/kg or 0.5 mg/kg), or placebo in a two-hour infusion initiated just prior to the start of cardiac catheterization. […]
In the BNP multinational study of 1568 patients presenting with dyspnea to the emergency department, BNP and NT-proBNP were the single most accurate predictors of diagnosis and severity of ADHF, and are used as a well-validated surrogate clinical efficacy endpoint in human trials (Ibrahim et al., Circ. Res. 123(5):614-629, 2018; Ibrahim et al., Circ. Heart Fail. 9(9), 2016). NT-proBNP levels were measured at baseline and 24 hours after the PZ-128 or placebo infusion was initiated and the cardiac catheterization procedure completed in the subset of patients with heart failure. […]

In test [3] the test system is PAR1. The following applies: cited from earlier work.

For the molecule `CCCCCCCCCCCCCCCC(=O)N[C@@H](CCCCN)C(=O)N[C@@H](CCCCN)C(=O)N[C@@H](CO)C(=O)N[C@@H](CCCNC(=N)N)C(=O)N[C@@H](C)C(=O)N[C@@H](CC(C)C)C(=O)N[C@@H](Cc1ccccc1)C(N)=O` [PZ-128, Palmitate-KKSRALF-NH2] (Palmitoyl-KKSRALF-NH2), the “reduction in mean Total Ischemic Area vs vehicle” value on PAR1 [1] (n=7, p<0.0001) is on record as 51-62%. For the same molecule, the “increase in total area of cardiac muscle able to be reperfused vs vehicle” value at PAR1 [1] (n=7, p<0.001) is 50%. Moreover, on PAR1 [1] (n=7, p<0.01), the “reduction in mean Area At Risk vs vehicle” value was 51-62% and the “reduction in mean cardiac Infarct Area vs vehicle” value is 51-62%. The “change in NT-proBNP levels” value at PAR1 [2] was “significant mean drop”. Moreover, in the test on PAR1 [3], the “mode of action at PAR1” value was “full PAR1 antagonists”.
